System: rat hepatic microsomal PTPases
Conditions: PTPase activity, compound at 50 μM

| Compound | % Change from Control [%] |
| --- | --- |
| O=C(O)COc1ccc(-c2c3ccc(OCC(=O)O)cc3cc3sc4ccccc4c23)cc1 [Example 76, [11-(4-Carboxymethoxy-phenyl)-benzo[b]naphtho[2.3-d]thiophen-8-yloxy]-acetic acid] | -18.89 |
| O=C(O)COc1c(Br)cc(-c2c3ccccc3c(Br)c3oc4ccccc4c23)c(O)c1Br [Example 217] | -80.42 |
| Oc1c(I)cc(-c2c3ccccc3cc3sc4ccccc4c23)cc1I [Example 26, 4-(Benzo[b]naphtho[2,3-d]thiophen-11-yl)-2,6-diiodo-phenol] | -8.68 |
| CS(=O)(=O)Oc1ccc(-c2c3ccccc3c(I)c3sc4ccccc4c23)cc1 [Example 47, Methanesulfonic acid 4-(6-Iodo-benzo[b]naphtho[2,3-d]thiophen-11-yl)-phenylester] | -3.50 |
| O=C(O)COc1ccc2c(c1)sc1cc3ccccc3c(-c3ccc(O[C@H](CCN4C(=O)c5ccccc5C4=O)C(=O)O)cc3)c12 [Example 149] | -59.82 |
| O=C(NO)[C@@H](Cc1ccccc1)Oc1c(Br)cc(-c2c3ccccc3c(Br)c3sc4ccccc4c23)cc1Br [Example 167] | -16.99 |
| N#Cc1cc(-c2c3ccccc3cc3sc4ccccc4c23)cc(C#N)c1O [Example 32, 5-Benzo[b]naphtho[2,3-d]thiophen-11-yl-2-hydroxy-isophthalonitrile] | -58.12 |
| O=C1NC(=O)C(Oc2c(Br)cc(-c3c4ccccc4c(Br)c4sc5ccccc5c34)cc2Br)S1 (stereo not shown) [Example 175, 5-[2,6-Dibromo-4-(6-bromo-benzo[b]naphtho[2,3-d]thiophen-11-yl)-phenoxy]-thiazolidinedione-2.4-dione] | -69.20 |
| Oc1ccc(-c2c3ccccc3cc3sc4cc(O)ccc4c23)cc1 [Example 15, 11-(4-Hydroxy-phenyl)-benzo[b]naphtho[2,3-d]thiophen-3-ol] | -43.68 |
| Oc1ccc(-c2c3ccccc3cc3sc4ccccc4c23)cc1 [Example 14, 4-Benzo[b]naphtho[2,3-d]thiophen-11-yl-phenol] | -34.19 |
| O=C(O)COc1ccc2c(c1)sc1cc3ccccc3c(-c3ccc(O[C@H](Cc4ccccc4)C(=O)O)cc3)c12 [Example 119] | -75.29 |
| Oc1ccc(-c2c3ccc(O)cc3cc3sc4ccccc4c23)cc1 [Example 20, 11-(4-Hydroxy-phenyl)-benzo[b]naphtho[2,3-d]thiophen-8-ol] | -26.86 |
| COc1c(C#N)cc(-c2c3ccccc3cc3sc4ccccc4c23)cc1C#N [Example 30, 5-Benzo[b]naphtho[2,3-d]thiophen-11-yl-2-methoxy-isophthalonitrile] | 1.00 |
| O=C(O)COc1c2ccccc2c(-c2cc(Br)c(O[C@H](Cc3ccccc3)C(=O)O)c(Br)c2)c2c1sc1ccccc12 [Example 185] | -98.45 |
| O=C(O)COc1cccc(-c2c3ccccc3c(Br)c3sc4ccccc4c23)c1 [Example 90, [3-(6-Bromo-benzo[b]naphtho[2,3-d]thiophen-11-yl)-phenoxyl]-acetic acid] | -79.04 |
| N#Cc1c2ccccc2c(-c2cc(Br)c(OCC(=O)O)c(Br)c2)c2c1sc1ccccc12 [Example 88] | -67.03 |
| O=C(O)COc1c(Br)cc(-c2c3c(c(Br)c4ccccc24)S(=O)(=O)c2ccccc2-3)cc1Br [Example 186] | -74.87 |
| Oc1ccc(-c2c3ccccc3cc3sc4ccccc4c23)cc1I [Example 27, 4-(Benzo[b]naphtho[2,3-d]thiophen-11-yl)-2-iodo-phenol] | -35.78 |
| O=C(O)[C@@H](CCN1C(=O)c2ccccc2C1=O)Oc1c(Br)cc(-c2c3ccccc3c(Br)c3sc4ccccc4c23)cc1Br [Example 147, (R)-2-[2,6-Dibromo-4-(6-bromo-benzo[b]naphtho[2,3-d]thiophen-11-yl)-phenoxy]-4-(1,3-dioxo-1,3-dihydro-isoindol-2-yl)-butyric acid] | -66.60 |
| O=P(O)(O)COc1ccc(-c2c3ccccc3cc3sc4ccccc4c23)cc1 [Example 163, [4-(Benzo[b]naphtho[2,3-d]thiophen-11-yl)-phenoxymethyl]-phosphonic acid] | -38.40 |
| COc1ccc(C(=O)c2c(Cc3ccccc3)sc3ccccc23)cc1 [Example 7, (2-Benzyl-benzo[b]thiophen-3-yl)-(4-methoxy-phenyl)-methanone] | 1.03 |

| Compound | % Change from Control [%] |
| --- | --- |
| Oc1c(Br)cc(-c2c3ccccc3c(Br)c3oc4ccccc4c23)c(O)c1Br [Example 211, 2,6-Dibromo-4-(6-bromo-benzo[b]naphtho[2,3-d]furan-11-yl)-3-hydroxy-phenol] | -36.82 |
| Cc1cc(-c2c3ccccc3c(C)c3sc4ccccc4c23)cc(C)c1OCC(=O)O [Example 86, {2,6-Dimethyl-4-[6-methyl-(benzo[b]naphtho[2,3-d]thiophen-11-yl)]-phenoxy}-acetic acid] | -69.35 |
| O=C(O)COc1ccc(-c2c3ccccc3c(Br)c3sc4ccccc4c23)cc1OCC(=O)O [Example 93] | -58.35 |
| COc1c(Br)cc(-c2c3ccccc3c(Br)c3sc4ccccc4c23)cc1Br [Example 22] | -16.83 |
| O=C(O)COc1c(I)cc(-c2c3ccccc3cc3sc4ccccc4c23)cc1I [Example 83, (4-Benzo[b]naphtho[2,3-d]thiophen-11-yl-2,6-diiodo-phenoxy)-acetic acid] | -57.89 |
| CCOP(=O)(OCC)C(CCc1ccccc1)Oc1c(Br)cc(-c2c3ccccc3c(Br)c3sc4ccccc4c23)cc1Br (stereo not shown) [Example 161, {1-2,6-Dibromo-4-(6-bromo-benzo[b]naphtho[2,3-d]thiophen-11-yl)-phenoxyl-3-phenyl-propyl}-phosphonic acid, diethyl ester] | -8.03 |
| O=C(O)COc1cc(Br)c(-c2c3ccccc3c(Br)c3sc4ccccc4c23)cc1OCC(=O)O [Example 95] | -75.45 |
| O=C(O)COc1ccc(-c2c3ccccc3cc3sc4cc(OCC(=O)O)ccc4c23)cc1 [Example 74, [11-(4-Carboxymethoxy-phenyl)-benzo[b]naphtho[2,3-d]thiophen-3-yloxy]-acetic acid] | -21.61 |
| COc1ccc(-c2c3ccccc3cc3sc4ccccc4c23)cc1 [Example 23, 11-(4-Methoxy-phenyl)-benzo[b]naphtho[2,3-d]thiophene] | -8.92 |
| COc1c(C)cc(-c2c3ccccc3c(C)c3sc4ccccc4c23)cc1C [Example 24, 11-(4-Methoxy-3,5-dimethyl-phenyl)-6-methyl-benzo[b]naphtho[2,3-d]thiophene] | 3.16 |
| O=C(O)COc1c(F)ccc(-c2c3ccccc3c(Br)c3sc4ccccc4c23)c1F [Example 201, [3-(6-Bromo-benzo[b]naphtho[2,3-d]thiophen-11-yl)-2.6-difluoro-phenoxy]-acetic acid] | -75.75 |
| O=C(O)COc1c(Br)cc(-c2c3ccccc3c(Br)c3c2c2ccccc2[s+]3[O-])cc1Br (stereo not shown) [Example 187] | -57.64 |
| O=C(O)COc1ccc(-c2c3ccccc3cc3sc4ccccc4c23)cc1I [Example 85, (4-Benzo[b]naphtho[2,3-d]thiophen-11-yl-2-iodo-phenoxy)-acetic acid] | -71.67 |
| O=C(O)COc1ccc(-c2c3ccccc3cc3sc4ccccc4c23)cc1 [Example 84, [4-Benzo[b]naphtho[2,3-d]thiophen-11-yl-phenoxy]-acetic acid] | -73.91 |
| O=P(O)(O)C(CCc1ccccc1)Oc1c(Br)cc(-c2c3ccccc3c(Br)c3sc4ccccc4c23)cc1Br (stereo not shown) [Example 164] | -70.32 |
| Cc1cc(-c2c3ccccc3c(C)c3sc4ccccc4c23)cc(C)c1O [Example 25, 2,6-Dimethyl-4-(6-methyl-benzo[b]naphtho[2,3-d]thiophen-11-yl)-phenol] | -38.31 |
| O=C(O)COc1cc(-c2c3ccccc3c(Br)c3sc4ccccc4c23)cc(Br)c1OCC(=O)O [Example 94] | -95.80 |
| O=C(O)COc1ccc(-c2c3ccccc3cc3oc4ccccc4c23)cc1 [Example 213, 4-(Benzo[b]naphtho[2,3-d]furan-11-yl-phenoxy)-acetic acid] | -54.40 |
| CC(=O)Oc1ccc(-c2c3ccccc3cc3sc4ccccc4c23)cc1 [Example 34, 4-(Benzo[b]naphtho[2,3-d]thiophen-11-yl-phenol)acetate ester] | -3.40 |
| BrC[C@@H](Cc1ccccc1)Oc1c(Br)cc(-c2c3ccccc3c(Br)c3sc4ccccc4c23)cc1Br [Example 174, (R)-6-Bromo-11-[3,5-dibromo-4-(1-bromomethyl-2-phenyl-ethoxy)-phenyl]-benzo[b]naphtho[2,3-d]thiophene] | 0.39 |
| Oc1c(Br)cc(-c2c3ccccc3c(C(F)(F)F)c3sc4ccccc4c23)cc1Br [Example 61, 2,6-Dibromo-4-(6-trifluoromethyl-benzo[b]naphtho[2,3-d]thiophen-11-yl)-phenol] | -54.82 |

Target: T1, Human recombinant PTP1B (Homo sapiens, UniProt P18031)
T1 construct: made in house
T1 sequence (P18031 1-435): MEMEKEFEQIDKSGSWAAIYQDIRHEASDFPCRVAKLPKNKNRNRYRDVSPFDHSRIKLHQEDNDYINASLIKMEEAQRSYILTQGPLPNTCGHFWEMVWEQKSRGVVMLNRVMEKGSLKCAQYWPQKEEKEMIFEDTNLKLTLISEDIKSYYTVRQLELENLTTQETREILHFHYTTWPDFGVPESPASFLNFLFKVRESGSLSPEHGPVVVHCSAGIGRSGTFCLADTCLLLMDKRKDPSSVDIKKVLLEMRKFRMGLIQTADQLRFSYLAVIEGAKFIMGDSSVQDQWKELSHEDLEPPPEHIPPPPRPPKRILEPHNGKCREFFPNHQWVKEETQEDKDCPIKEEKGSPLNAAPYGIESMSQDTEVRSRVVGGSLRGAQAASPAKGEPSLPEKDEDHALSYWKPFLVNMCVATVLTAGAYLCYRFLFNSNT
Assay type: biochemical
Conditions: read-out: IC50

| Compound | IC50 [nM] |
| --- | --- |
| Oc1c(-c2ccccc2)cc(-c2c3ccccc3cc3sc4ccccc4c23)cc1-c1ccccc1 [Example 190, 5'-Benzo[b]naphtho[2,3-d]thiophen-11-yl-[1,1':3', 1.increment.]terphenyl-2'-ol] | 2000 |

— US6110962A, “11-aryl-benzo[B]naphtho[2,3-D]furans and 11-aryl-benzo[B]naphtho[2,3-D]thiophenes useful in the treatment of insulin resistance and hyperglycemia” (American Home Products Corporation, priority 1999, dated 2000)
